Assays:
MSTO-211H cells [1] = test: Cellular growth of MSTO-211H cells; type: cell-based, human; conditions: 10^-6 M; cells counted after 24, 48 and 72 h
Experimental: (§1) The human mesothelioma cell line, MSTO-211H, was selected because of its intense proliferative activity and its aggressive profile (ATCC CRL-2081, 211H). The MSTO-211H cells were grown in RPMI-1640 medium (Invitrogen, USA) supplemented with 10% fetal calf serum (PAATM) and 2 mM glutamine (Gibco®). Cells were stored at 37° in 5% CO2 atmosphere.
Cellular growth was performed using 6 well-tissue-culture dishes. 15×10^4 MSTO-211H cells were seeded, after 24 h cells were washed twice with PBS, and complete media containing either 10^−6M SR 48692, a NTSR1 antagonist, or 10^−4M de DMSO was added to the cells. After 24, 48, and 72 h of growth, cells were trypsinized and counted with a cells coulter (Z1 Coulter® Particle Counter, Beckman Coulter™).

MSTO-211H cells [2] = test: Wound healing assay (cell migration); type: cell-based, human; conditions: 10^-6 M; at 24 and 30 hours; 0.5% FCS; controls 27% (untreated), 30% (DMSO)
Experimental: as §1
In order to evaluate the impact of the neurotensinergic system on cell migration, a wound healing assay was performed. 1.75×10^6 MSTO-211H cells were plated per well in 6 well dishes containing the medium in order to reach confluence. After 24 hours cells were serum-starved and scarification was performed in a Moscona buffer with a 20 μl pipette tip. Cells were maintained in culture with low serum medium (0.5% FCS) and treated with 10^−6 M SR48692. Control cells were exposed or not to the SR48692 solvent, DMSO. Pictures were taken at the beginning and 24 and 30 hours later with a photonic microscope. The “remaining gap” was calculated as percentage between wound size at 30 hours and initial wound size.

MSTO-211H cells [3] = test: Collagen invasion assay (type I collagen); type: cell-based, human; conditions: 5x10^-6 M SR48692 or 1:50 anti-NTS antibody; 48 hours; controls 13% (untreated), 11% (DMSO)
Experimental: as §1
Collagen invasion assay was performed by using tissue culture inserts composed of a 8 μm porous polycarbonate membrane, placed as inner chamber in 24 well-tissue-culture dishes. This membrane was coated with […] of 2 mg/ml type I collagen diluted in RPMI-1640 medium (Collagen type I, rat tail, Upstate). The bottom chamber was filled with 500 μL RPMI-1640 medium supplemented with 10% fetal calf serum and 2 mM glutamine. 10^3 MSTO-211H cells were seeded on the top of the inner chamber. Cells were treated with 5×10^−6 M of NTSR1 antagonist SR48692 or with 1:50 solution of anti-NTS rabbit antibody (NA1230, Tebu-Bio). Cells were placed for 48 hours at 37° C. in 5% CO2 atmosphere. After incubation, non invasive cells on the upper surface of the collagen matrix were wiped off with cotton swabs. Filter membranes were fixed with 5% glutaraldehyde and remaining cells stained with 0.5% toluidine blue. Quantitation of invasive cells was carried out at the 400× magnification by using the software CELINA.

[4] = patients with MPM, randomized study, two arms; cited from earlier work

Compound | effect on cell growth (MSTO-211H cells [1]) | residual gap (% of original gap) (MSTO-211H cells [2]) | cells that invaded the type I collagen (MSTO-211H cells [3]) | median survival [4]
COc1cccc(OC)c1-c1cc(C(=O)NC2(C(=O)O)C3CC4CC(C3)CC2C4)nn1-c1ccnc2cc(Cl)ccc12 (stereo not shown) [SR48692] | no effect | 48% | 4% | –
N.N.[Cl][Pt][Cl] [cisplatin] | – | – | – | 9.3 months
